Experimental data reported in patent publication US9149475B2, “Protein kinase C inhibitors and uses thereof” (Rigel Pharmaceuticals, Inc., priority 2009, dated 2015).

Tested on: Human primary T cells
Test: IL-2 ELISA, human primary T cell, anti-CD3+CD28+ (whole cell assay)
Assay type: cell-based
Settings: human primary T cells stimulated with anti-CD3 + anti-CD28, 24 hours
Experimental: (§1) Human primary T cells were prepared as follows. Whole blood was obtained from a healthy volunteer, mixed 1:1 with PBS, layered on to Ficoll Hypaque (Amersham Pharmacia Biotech, Piscataway, N.J., Catalog #17-1440-03) in 2:1 blood/PBS:ficoll ratio and centrifuged for 30 minutes at 4° C. at 1750 rpm. The cells at the serum:ficoll interface were recovered and washed twice with 5 volumes of PBS. These freshly isolated human peripheral blood mononuclear cells were cultured in Yssel's medium containing 40 U/mL IL2 in a flask pre-coated with 1 μg/mL αCD3 and 5 μg/mL αCD28 (Anti-Human CD3, BD Pharmingen Catalog #555336, Anti-Human CD28, Beckman Coulter Catalog #IM1376). The cells were stimulated for 3-4 days, then transferred to a fresh flask and maintained in RPMI (RPMI-1640 with L-Glutamine; Mediatech, Inc., Herndon Va., cat. #10-040-CM) with 10% FBS and 40 U/mL IL-2. The primary T-cells were then washed twice with PBS to remove the IL-2.
Human primary T cells (100,000 cells per well) were pre-incubated with or without test compound in Yssel's medium for 1 hr at 37° C. Cells were then stimulated by transferring them to round-bottom 96-well plates pre-coated with 1 μg/ml μCD3 and 5 μg/ml μCD28. For counter assay, cells were instead stimulated by adding 8× stock solutions of PMA and ionomycin in Yssels (for final concentrations of 0.5 ng/ml PMA and 0.1 μM ionomycin, both from Calbiochem). Cells were incubated at 37° C. for 24 hours before 100 μL supernatants were harvested for quantification of IL-2 by ELISA using Human IL-2 Duoset ELISA Kit from R and D Systems, Cat. #DY202E.
as §1, with “Human primary T cell isolation and culture: Human primary” for “Human primary”, “for 30 min at 4°” for “for 30 minutes at 4°”, “at the serum: ficoll interface were” for “at the serum:ficoll interface were”
Primary T cell stimulation and IL2 ELISA: Human primary T cells (100,000 cells per well) were pre-incubated with or without test compound in Yssel's medium for 1 hr at 37° C. Cells were then stimulated by transferring them to round-bottom 96-well plates pre-coated with 1 μg/ml αCD3 and 5 μg/ml αCD28. For counter assay, cells were instead stimulated by adding 8× stock solutions of PMA and ionomycin in Yssels (for final concentrations of 0.5 ng/ml PMA and 0.1 μM ionomycin, both from Calbiochem). Cells were incubated at 37° C. for 24 hours before 100 μL supernatants were harvested for quantification of IL-2 by ELISA using Human IL-2 Duoset ELISA Kit from R and D Systems, Cat. #DY202E.

CC1(C)CC(Nc2nc(Nc3ccc(OCCCN4CCOCC4)c(OC(F)F)c3)ncc2F)CC(C)(C)N1 [Compound I-47, N2-(4-(3-morpholinopropoxy)-3-(difluoromethoxy)phenyl)-5-fluoro-N4-(2,2,6,6-tetramethylpiperidin-4-yl)pyrimidine-2,4-diamine]
IC50 (Homo sapiens, T-cell, 24 h): 0.5 to 1 µM

CN1C(C)(C)CC(Nc2nc(Nc3ccc(OCCCN4CCOCC4)c(OC(F)F)c3)ncc2F)CC1(C)C [Compound I-48, N2-(4-(3-morpholinopropoxy)-3-(difluoromethoxy)phenyl)-5-fluoro-N4-(1,2,2,6,6-pentamethylpiperidin-4-yl)pyrimidine-2,4-diamine]
IC50 (Homo sapiens, T-cell, 24 h): < 0.25 µM

CN1C(C)(C)CC(Nc2nc(Nc3cc(OCCCn4cccc4)cc(C(F)(F)F)c3)ncc2F)CC1(C)C [Compound I-49, N2-(3-(3-(1H-pyrrol-1-yl)propoxy)-5-(trifluoromethyl)phenyl)-5-fluoro-N4-(1,2,2,6,6-pentamethylpiperidin-4-yl)pyrimidine-2,4-diamine]
IC50 (Homo sapiens, T-cell, 24 h): 0.5 to 1 µM

CC1(C)CC(Nc2nc(Nc3ccc(OCCN4CCNC4=O)c(OC(F)F)c3)ncc2F)CC(C)(C)N1 [Compound I-50, 1-(2-(4-(4-(2,2,6,6-tetramethylpiperidin-4-ylamino)-5-fluoropyrimidin-2-ylamino)-2-(difluoromethoxy)phenoxy)ethyl)imidazolidin-2-one]
IC50 (Homo sapiens, T-cell, 24 h): > 1 µM

CN1C(C)(C)CC(Nc2nc(Nc3ccc(OCCN4CCNC4=O)c(OC(F)F)c3)ncc2F)CC1(C)C [Compound I-51, 1-(2-(4-(4-(1,2,2,6,6-pentamethylpiperidin-4-ylamino)-5-fluoropyrimidin-2-ylamino)-2-(difluoromethoxy)phenoxy)ethyl)imidazolidin-2-one]
IC50 (Homo sapiens, T-cell, 24 h): 0.5 to 1 µM

CN1C(C)(C)CC(Nc2nc(Nc3ccc(Oc4cccnc4)c(OC(F)F)c3)ncc2C#N)CC1(C)C [Compound I-52, 4-(1,2,2,6,6-pentamethylpiperidin-4-ylamino)-2-(3-(difluoromethoxy)-4-(pyridin-3-yloxy)phenylamino)pyrimidine-5-carbonitrile]
IC50 (Homo sapiens, T-cell, 24 h): < 0.25 µM

CN1C(C)(C)CC(Nc2nc(Nc3ccc(Oc4ccncc4)c(OC(F)F)c3)ncc2C#N)CC1(C)C [Compound I-53, 4-(1,2,2,6,6-pentamethylpiperidin-4-ylamino)-2-(3-(difluoromethoxy)-4-(pyridin-4-yloxy)phenylamino)pyrimidine-5-carbonitrile]
IC50 (Homo sapiens, T-cell, 24 h): > 1 µM

CN1C(C)(C)CC(Nc2nc(Nc3ccc(OCCn4cncn4)c(OC(F)F)c3)ncc2C#N)CC1(C)C [Compound I-54, 4-(1,2,2,6,6-pentamethylpiperidin-4-ylamino)-2-(4-(2-(1H-1,2,4-triazol-1-yl)ethoxy)-3-(difluoromethoxy)phenylamino)pyrimidine-5-carbonitrile]
IC50 (Homo sapiens, T-cell, 24 h): 0.5 to 1 µM

CN1C(C)(C)CC(Nc2nc(Nc3ccc(OCCn4ccnn4)c(OC(F)F)c3)ncc2C#N)CC1(C)C [Compound I-55, 4-(1,2,2,6,6-pentamethylpiperidin-4-ylamino)-2-(4-(2-(1H-1,2,3-triazol-1-yl)ethoxy)-3-(difluoromethoxy)phenylamino)pyrimidine-5-carbonitrile]
IC50 (Homo sapiens, T-cell, 24 h): 0.25 to 0.5 µM

CN1C(C)(C)CC(Nc2nc(Nc3ccc(OCCN4CCCC4=O)c(C(F)(F)F)c3)ncc2F)CC1(C)C [Compound I-56, 1-(2-(4-(4-(1,2,2,6,6-pentamethylpiperidin-4-ylamino)-5-fluoropyrimidin-2-ylamino)-2-(trifluoromethyl)phenoxy)ethyl)pyrrolidin-2-one]
IC50 (Homo sapiens, T-cell, 24 h): 0.5 to 1 µM

CC1(C)CC(Nc2nc(Nc3ccc(OCCN4CCCC4=O)c(C(F)(F)F)c3)ncc2F)CC(C)(C)N1 [Compound I-57, 1-(2-(4-(4-(2,2,6,6-tetramethylpiperidin-4-ylamino)-5-fluoropyrimidin-2-ylamino)-2-(trifluoromethyl)phenoxy)ethyl)pyrrolidin-2-one]
IC50 (Homo sapiens, T-cell, 24 h): > 1 µM

CC1(C)CC(Nc2nc(Nc3ccc(Oc4ccncc4)c(OC(F)F)c3)ncc2C#N)CC(C)(C)N1 [Compound I-58, 4-(2,2,6,6-tetramethylpiperidin-4-ylamino)-2-(3-(difluoromethoxy)-4-(pyridin-4-yloxy)phenylamino)pyrimidine-5-carbonitrile]
IC50 (Homo sapiens, T-cell, 24 h): 0.5 to 1 µM

CC1(C)CC(Nc2nc(Nc3ccc(Oc4cccnc4)c(C(F)(F)F)c3)ncc2F)CC(C)(C)N1 [Compound I-59, 5-fluoro-N2-(3-(trifluoromethyl)-4-(pyridin-3-yloxy)phenyl)-N4-(2,2,6,6-tetramethylpiperidin-4-yl)pyrimidine-2,4-diamine]
IC50 (Homo sapiens, T-cell, 24 h): > 1 µM

CC1(C)CC(Nc2nc(Nc3ccc(OCCN4CCCC4)c(OC(F)F)c3)ncc2F)CC(C)(C)N1 [Compound I-60, N2-(4-(2-(pyrrolidin-1-yl)ethoxy)-3-(difluoromethoxy)phenyl)-5-fluoro-N4-(2,2,6,6-tetramethylpiperidin-4-yl)pyrimidine-2,4-diamine]
IC50 (Homo sapiens, T-cell, 24 h): 0.5 to 1 µM

CN1C(C)(C)CC(Nc2nc(Nc3ccc(Oc4cccnc4)c(C(F)(F)F)c3)ncc2F)CC1(C)C [Compound I-61, 5-fluoro-N2-(3-(trifluoromethyl)-4-(pyridin-3-yloxy)phenyl)-N4-(1,2,2,6,6-pentamethylpiperidin-4-yl)pyrimidine-2,4-diamine]
IC50 (Homo sapiens, T-cell, 24 h): 0.5 to 1 µM

CN1C(C)(C)CC(Nc2nc(Nc3ccc(Oc4ccncc4)c(C(F)(F)F)c3)ncc2F)CC1(C)C [Compound I-62, 5-fluoro-N2-(3-(trifluoromethyl)-4-(pyridin-4-yloxy)phenyl)-N4-(1,2,2,6,6-pentamethylpiperidin-4-yl)pyrimidine-2,4-diamine]
IC50 (Homo sapiens, T-cell, 24 h): > 1 µM

CC1(C)CC(Nc2nc(Nc3ccc(-c4cccnc4)c(OC(F)F)c3)ncc2F)CC(C)(C)N1 [Compound I-63, N2-(3-(difluoromethoxy)-4-(pyridin-3-yl)phenyl)-5-fluoro-N4-(2,2,6,6-tetramethylpiperidin-4-yl)pyrimidine-2,4-diamine]
IC50 (Homo sapiens, T-cell, 24 h): 0.25 to 0.5 µM

CN1C(C)(C)CC(Nc2nc(Nc3ccc(-c4cccnc4)c(OC(F)F)c3)ncc2F)CC1(C)C [Compound I-64, N2-(3-(difluoromethoxy)-4-(pyridin-3-yl)phenyl)-5-fluoro-N4-(1,2,2,6,6-pentamethylpiperidin-4-yl)pyrimidine-2,4-diamine]
IC50 (Homo sapiens, T-cell, 24 h): < 0.25 µM

CC1(C)CC(Nc2nc(Nc3ccc(OCCN4CCOCC4)c(C(F)(F)F)c3)ncc2F)CC(C)(C)N1 [Compound I-65, N2-(4-(2-morpholinoethoxy)-3-(trifluoromethyl)phenyl)-5-fluoro-N4-(2,2,6,6-tetramethylpiperidin-4-yl)pyrimidine-2,4-diamine]
IC50 (Homo sapiens, T-cell, 24 h): 0.5 to 1 µM

CC1(C)CC(Nc2nc(Nc3ccc(OCCCN4CCOCC4)c(OC(F)F)c3)ncc2F)CC(C)(C)N1CC(F)(F)F [Compound I-66, N2-(4-(3-morpholinopropoxy)-3-(difluoromethoxy)phenyl)-5-fluoro-N4-(1-(2,2,2-trifluoroethyl)-2,2,6,6-tetramethylpiperidin-4-yl)pyrimidine-2,4-diamine]
IC50 (Homo sapiens, T-cell, 24 h): > 1 µM

CC1(C)CC(Nc2nc(Nc3ccc(F)c(-n4cnnn4)c3)ncc2C(N)=O)CC(C)(C)N1 [Compound I-67, 5-aminocarbonyl-N2-[4-fluoro-3-(1H-tetrazol-1-yl)]phenyl-N4-(2,2,6,6-tetramethylpiperidin-4-yl)-2,4-pyrimidinediamine]
IC50: > 1 µM

CCOc1ccc(Nc2ncc(C(N)=O)c(NC3CC(C)(C)NC(C)(C)C3)n2)cc1-n1nnnc1CC [Compound I-68, 5-aminocarbonyl-N2-[4-ethoxy-3-(5-ethyl-1H-tetrazol-1-yl)]phenyl-N4-(2,2,6,6-tetramethylpiperidin-4-yl)-2,4-pyrimidinediamine]
IC50: > 1 µM

CN1C(C)(C)CC(Nc2nc(Nc3cccc(-n4nnnc4SCC(F)(F)F)c3)ncc2F)CC1(C)C [Compound I-69, 5-fluoro-N4-(1,2,2,6,6-pentamethylpiperidin-4-yl)-N2-{3-[5-(2,2,2-trifluoroethyl)thio]-1H-tetrazol-1-yl}phenyl-2,4-pyrimidinediamine]
IC50: < 0.25 µM
